The source made the active and inactive calls. The rule behind the calls is not given here.
Legend:
AHH-1 [1] = test: Cytotoxicity against human AHH-1 cells incubated for 24 to 96 hrs by CCK-8 assay; format: functional, cell-based
AHH-1 [2] = test: Antiradiation activity in human AHH-1 cells assessed as increase in cell viability at 2.5 to 10 micromol/L pre-treated with compound for 24 hrs followed by irradiation at 4 Gy measured after 24 hrs by CCK-8 assay; format: functional, cell-based; settings: dose 2.5-10 µmol/L, time 48.0 hrs
AHH-1 [3] = test: Antiradiation activity in human AHH-1 cells assessed as increase in cell viability at 2.5 to 10 micromol/L pre-treated with compound for 24 hrs followed by irradiation at 6 Gy measured after 24 hrs by CCK-8 assay; format: functional, cell-based; settings: dose 2.5-10 µmol/L, time 48.0 hrs
AHH-1 [4] = test: Antiradiation activity in human AHH-1 cells assessed as increase in cell viability at 2.5 to 10 micromol/L pre-treated with compound for 24 hrs followed by irradiation at 8 Gy measured after 24 hrs by CCK-8 assay; format: functional, cell-based; settings: dose 2.5-10 µmol/L, time 48.0 hrs
[5] = Cytotoxicity against HUVEC incubated for 24 to 96 hrs by CCK-8 assay; format: toxicity, cell-based; settings: human, HUVEC cells
Mus musculus [6] = test: Radioprotective activity in male C57BL/6J mouse assessed as survival rate at 100 mg/kg, ip pre-treated with compound for 24.25 hrs followed by irradiation at 8.5 Gy and measured for 30 days post irradiation relative to control; format: functional; settings: time 744.25 hrs
Mus musculus [7] = test: Radioprotective activity in male C57BL/6J mouse assessed as increase in body weight at 100 to 300 mg/kg, ip pre-treated with compound for 24.25 hrs followed by irradiation at 8.5 Gy and measured on day 18 post irradiation; format: functional, organism-based; settings: dose 100-300 mg/kg, time 456.25 hrs
Mus musculus [8] = test: Radioprotective activity in male C57BL/6J mouse assessed as survival rate at 300 mg/kg, ip pre-treated with compound for 24.25 hrs followed by irradiation at 8.5 Gy and measured for 30 days post irradiation relative to control; format: functional; settings: time 744.25 hrs
Mus musculus [9] = test: Radioprotective activity in male C57BL/6J mouse assessed as increase in cell growth at 250 to 300 mg/kg, ip pre-treated with compound for 24.25 hrs followed by irradiation at 6.5 Gy and measured on 30 day post irradiation; format: functional, organism-based; settings: dose 250-300 mg/kg, time 744.25 hrs
AHH-1 [10] = test: Induction of apoptosis in human AHH-1 cells assessed as viable cells pre-treated with compound for 24 hrs followed by irradiation at 6 Gy and measured after 24 hrs by Annexin V-FITC/PI staining based Flow cytometry analysis (reference value: 83.6%); format: functional; settings: time 48 hrs
AHH-1 [11] = test: Induction of apoptosis in human AHH-1 cells assessed as early apoptotic cells pre-treated with compound for 24 hrs followed by irradiation at 6 Gy and measured after 24 hrs by Annexin V-FITC/PI staining based Flow cytometry analysis (reference value: 8.15%); format: functional; settings: time 48 hrs
AHH-1 [12] = test: Induction of apoptosis in human AHH-1 cells assessed as late apoptotic cells pre-treated with compound for 24 hrs followed by irradiation at 6 Gy and measured after 24 hrs by Annexin V-FITC/PI staining based Flow cytometry analysis (reference value: 2.65%); format: functional; settings: time 48 hrs
AHH-1 [13] = test: Induction of apoptosis in human AHH-1 cells assessed as necrotic cells pre-treated with compound for 24 hrs followed by irradiation at 6 Gy and measured after 24 hrs by Annexin V-FITC/PI staining based Flow cytometry analysis (reference value: 5.37%); format: functional; settings: time 48 hrs
HUVEC [14] = test: Antiradiation activity in human HUVEC assessed as cell viability at 5 to 20 micromol/L pre-treated with compound for 24 hrs followed by irradiation at 6 Gy measured after 96 hrs by CCK-8 assay; format: functional, cell-based; settings: dose 5-20 µmol/L, time 120.0 hrs
Mus musculus [15] = test: Radioprotective activity in male C57BL/6J mouse assessed as survival rate at 250 mg/kg, ip pre-treated with compound for 24.25 hrs followed by irradiation at 8.5 Gy and measured for 30 days post irradiation relative to control; format: functional; settings: time 744.25 hrs
HUVEC [16] = test: Antiradiation activity in human HUVEC assessed as cell viability at 5 to 20 micromol/L pre-treated with compound for 24 hrs followed by irradiation at 8 Gy measured after 96 hrs by CCK-8 assay; format: functional, cell-based; settings: dose 5-20 µmol/L, time 120.0 hrs

Structure (SMILES) | IC50 (AHH-1 [1]) [µM] | Activity (AHH-1 [2]) | Activity (AHH-1 [3]) | Activity (AHH-1 [4]) | other results
Clc1ccc2nc(SCc3ccccc3)cnc2c1 | > 60 | Active | Active | Active | –
O=S(=O)(Cc1ccc(Cl)cc1)c1cnc2cc(Br)ccc2n1 | > 60 | – | – | – | –
[O-][S+](Cc1ccc(F)cc1)c1cnc2cc(Br)ccc2n1 (stereo not drawn) | > 60 | – | – | – | –
Clc1ccc(CSc2cnc3cc(Br)ccc3n2)cc1 | 3.03 | – | – | – | –
[O-][S+](Cc1ccccc1)c1cnc2cc(Cl)ccc2n1 (stereo not drawn) | 6.28 | – | – | – | –
Brc1ccc(CSc2cnc3ccccc3n2)cc1 | 8.9 | Active | Active | Active | –
N#Cc1ccc(C[S+]([O-])c2cnc3cc(Cl)ccc3n2)cc1 (stereo not drawn) | 4.59 | – | – | – | –
Fc1ccc(CSc2cnc3cc(Cl)ccc3n2)cc1 | > 60 | – | – | – | –
COc1ccc(CSc2cnc3cc(Br)ccc3n2)cc1 | 39.5 | Active | Active | Active | –
O=S(=O)(Cc1ccc(Cl)cc1)c1cnc2ccccc2n1 | 5.56 | – | – | – | –
Brc1ccc(CSc2cnc3cc(Br)ccc3n2)cc1 | 4.58 | – | – | – | –
[O-][S+](Cc1ccc(F)cc1)c1cnc2ccccc2n1 (stereo not drawn) | > 60 | Active | Active | Active | –
Cc1ccc(C[S+]([O-])c2cnc3cc(Cl)ccc3n2)cc1 (stereo not drawn) | 13 | – | – | – | –
[O-][S+](Cc1ccc(Br)cc1)c1cnc2ccccc2n1 (stereo not drawn) | > 60 | – | – | – | –
Cc1ccc(CS(=O)(=O)c2cnc3cc(Br)ccc3n2)cc1 | > 60 | – | – | – | –
Clc1ccc(CSc2cnc3cc(Cl)ccc3n2)cc1 | 53.8 | Active | Active | Active | –
O=S(=O)(Cc1ccc(Br)cc1)c1cnc2cc(Br)ccc2n1 | 21.7 | – | – | – | –
N#Cc1ccc(CSc2cnc3cc(Cl)ccc3n2)cc1 | > 60 | Active | Active | Active | –
O=S(=O)(Cc1ccc(F)cc1)c1cnc2cc(Br)ccc2n1 | > 60 | – | – | – | –
O=S(=O)(Cc1ccc(F)cc1)c1cnc2ccccc2n1 | > 60 | – | – | – | –
O=C(O)c1ccc(CS(=O)(=O)c2cnc3cc(Cl)ccc3n2)cc1 | 22.4 | Active | Active | Active | IC50 [5]: > 60 µM; Activity (Mus musculus [6]): 50%; Activity (Mus musculus [7]): Active
Cc1ccc(CSc2cnc3cc(Cl)ccc3n2)cc1 | > 60 | Active | Active | Active | –
[O-][S+](Cc1ccc(Br)cc1)c1cnc2cc(Cl)ccc2n1 (stereo not drawn) | 12.9 | – | – | – | –
[O-][S+](Cc1ccc(F)cc1)c1cnc2cc(Cl)ccc2n1 (stereo not drawn) | 5.23 | – | – | – | –

Structure (SMILES) | IC50 (AHH-1 [1]) [µM] | Activity (AHH-1 [2]) | Activity (AHH-1 [3]) | Activity (AHH-1 [4]) | other results
Cc1ccc(CSc2cnc3ccccc3n2)cc1 | > 60 | Active | Active | Active | –
Fc1ccc(CSc2cnc3ccccc3n2)cc1 | 58.8 | Active | Active | Active | –
O=C(O)c1ccc(CSc2cnc3cc(Br)ccc3n2)cc1 | > 60 | Active | Active | Active | –
Fc1ccc(CSc2cnc3cc(Br)ccc3n2)cc1 | 22.2 | Active | Active | Active | –
O=S(=O)(Cc1ccccc1)c1cnc2cc(Cl)ccc2n1 | 6.27 | – | – | – | –
O=C([O-])c1ccc(/C=C/S(=O)(=O)Cc2ccc(Cl)cc2)cc1.[Na+] [RECILISIB SODIUM] | 39.6 | Active | Active | Active | IC50 [5]: > 60 µM; Activity (Mus musculus [8]): 20%; Activity (Mus musculus [7]): Active; Activity (Mus musculus [9]): Active; Activity (AHH-1 [10]): 66.6%; Activity (AHH-1 [11]): 19.2%; Activity (AHH-1 [12]): 8.65%; Activity (AHH-1 [13]): 5.5%
Cc1ccc(CSc2cnc3cc(Br)ccc3n2)cc1 | 11.3 | – | – | – | –
N#Cc1ccc(CSc2cnc3ccccc3n2)cc1 | 17.3 | Active | Active | Active | –
O=S(=O)(Cc1ccc(Br)cc1)c1cnc2cc(Cl)ccc2n1 | 15.5 | Active | Active | Active | –
O=S(=O)(Cc1ccc(F)cc1)c1cnc2cc(Cl)ccc2n1 | 6.32 | Active | Active | Active | –
COc1ccc(CSc2cnc3cc(Cl)ccc3n2)cc1 | > 60 | Active | Active | Active | –
COc1ccc(CSc2cnc3ccccc3n2)cc1 | > 60 | Active | Active | Active | –
Clc1ccc2nc(SCc3ccc(Br)cc3)cnc2c1 | > 60 | – | – | – | –
Cc1ccc(CS(=O)(=O)c2cnc3ccccc3n2)cc1 | 36.5 | Active | Active | Active | IC50 [5]: 56.1 µM; Activity (HUVEC [14]): Active; Activity (Mus musculus [15]): 80%; Activity (Mus musculus [7]): Active; Activity (HUVEC [16]): Active
O=C(O)c1ccc(CSc2cnc3cc(Cl)ccc3n2)cc1 | > 60 | Active | Active | Active | –
O=C(O)c1ccc(CS(=O)(=O)c2cnc3ccccc3n2)cc1 | > 60 | Active | Active | Active | –
[O-][S+](Cc1ccc(Cl)cc1)c1cnc2cc(Cl)ccc2n1 (stereo not drawn) | 11.2 | – | – | – | –
N#Cc1ccc(CS(=O)(=O)c2cnc3cc(Cl)ccc3n2)cc1 | 4.8 | Active | Active | Active | –
O=S(=O)(Cc1ccc(Br)cc1)c1cnc2ccccc2n1 | > 60 | Active | Active | Active | –
O=S(=O)(Cc1ccc(Cl)cc1)c1cnc2cc(Cl)ccc2n1 | 18.6 | – | – | – | –
Cc1ccc(CS(=O)(=O)c2cnc3cc(Cl)ccc3n2)cc1 | 27.7 | – | – | – | –
O=C(O)c1ccc(CSc2cnc3ccccc3n2)cc1 | > 60 | Active | Active | Active | –
Clc1ccc(CSc2cnc3ccccc3n2)cc1 | 16.6 | Active | Active | Active | –
